Measured values taken from PubChem BioAssay (NCI).
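GI50 = concentration required for 50% inhibition of growth. TGI: total growth inhibition.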

Experiments:
Assay in all cases: NCI tumour cell line growth inhibition, 384-well format
[1] = system: OVCAR-5 ovarian
[2] = system: HCT-15 colon
[3] = system: OVCAR-3 ovarian
[4] = system: SK-OV-3 ovarian
[5] = system: RPMI-8226 leukemia
[6] = system: MCF7 breast
[7] = system: DU-145 prostate
[8] = system: T-47D breast
[9] = system: SK-MEL-5 melanoma
[10] = system: UACC-62 melanoma
[11] = system: HCC-2998 colon
[12] = system: PC-3 prostate
[13] = system: EKVX NSCLC
[14] = system: MDA-MB-468 breast
[15] = system: RXF 393 renal
[16] = system: HOP-92 NSCLC
[17] = system: CCRF-CEM leukemia
[18] = system: NCI-H322M lung
[19] = system: MALME-3M melanoma
[20] = system: HOP-62 NSCLC
[21] = system: IGROV1 ovarian
[22] = system: NCI-H460 NSCLC
[23] = system: HS 578T breast
[24] = system: KM12 colon
[25] = system: SW-620 colon
[26] = system: NCI-H226 lung
[27] = system: OVCAR-8 ovarian
[28] = system: CAKI-1 renal
[29] = system: NCI-H23 lung
[30] = system: NCI-H522 lung
[31] = system: SNB-75 CNS
[32] = system: COLO 205 colon
[33] = system: TK-10 renal
[34] = system: SN12C renal
[35] = system: NCI/ADR-RES ovarian
[36] = system: A498 renal
[37] = system: M14 melanoma
[38] = system: U251 glioblastoma
[39] = system: HL-60(TB) leukemia
[40] = system: SR leukemia
[41] = system: MDA-MB-435 melanoma
[42] = system: SF-268 CNS
[43] = system: A549 NSCLC
[44] = system: 786-0 renal
[45] = system: UACC-257 melanoma
[46] = system: SNB-19 CNS
[47] = system: SK-MEL-28 melanoma
[48] = system: MOLT-4 leukemia
[49] = system: HT29 colon
[50] = system: SK-MEL-2 melanoma
[51] = system: SF-539 CNS
[52] = system: SF-295 CNS
[53] = system: ACHN renal
[54] = system: BT-549 breast
[55] = system: OVCAR-4 ovarian
[56] = system: MDA-MB-231 breast

For COc1c2occc2cc2ccc(=O)oc12, the GI50 [1] was > 100 µM, the TGI [1] was > 100 µM and the GI50 [2] was > 100 µM. For the same molecule, the TGI [2] was > 100 µM, the GI50 [3] was > 100 µM and the TGI [3] was > 100 µM. For the same molecule, the GI50 [4] was > 100 µM, the TGI [4] was > 100 µM and the GI50 [5] was > 100 µM. For the same molecule, the TGI [5] was > 100 µM, the GI50 [6] was > 100 µM and the TGI [6] was > 100 µM. For the same molecule, the GI50 [7] was > 100 µM, the TGI [7] was > 100 µM and the GI50 [8] was > 100 µM. For the same molecule, the TGI [8] was > 100 µM, the GI50 [9] was > 100 µM and the TGI [9] was > 100 µM. For the same molecule, the GI50 [10] was > 100 µM, the TGI [10] was > 100 µM and the GI50 [11] was > 100 µM. The TGI [11] was > 100 µM, the GI50 [12] was > 100 µM and the TGI [12] was > 100 µM. The GI50 [13] was 93.1 µM, the TGI [13] was > 100 µM and the GI50 [14] was 39.8 µM. The TGI [14] was > 100 µM, the GI50 [15] was > 100 µM and the TGI [15] was > 100 µM. The GI50 [16] was > 100 µM, the TGI [16] was > 100 µM and the GI50 [17] was > 100 µM. The TGI [17] was > 100 µM, the GI50 [18] was > 100 µM and the TGI [18] was > 100 µM. The GI50 [19] was > 100 µM, the TGI [19] was > 100 µM and the GI50 [20] was > 100 µM. For the same molecule, the TGI [20] was > 100 µM, the GI50 [21] was > 100 µM and the TGI [21] was > 100 µM. For the same molecule, the GI50 [22] was > 100 µM, the TGI [22] was > 100 µM and the GI50 [23] was > 100 µM. For the same molecule, the TGI [23] was > 100 µM, the GI50 [24] was > 100 µM and the TGI [24] was > 100 µM. For the same molecule, the GI50 [25] was > 100 µM, the TGI [25] was > 100 µM and the GI50 [26] was 55.4 µM. For the same molecule, the TGI [26] was > 100 µM, the GI50 [27] was > 100 µM and the TGI [27] was > 100 µM. The GI50 [28] was > 100 µM, the TGI [28] was > 100 µM and the GI50 [29] was > 100 µM. The TGI [29] was > 100 µM, the GI50 [30] was 60.9 µM and the TGI [30] was > 100 µM. For the same molecule, the GI50 [31] was 73.3 µM, the TGI [31] was > 100 µM and the GI50 [32] was > 100 µM. For the same molecule, the TGI [32] was > 100 µM, the GI50 [33] was 81.6 µM and the TGI [33] was > 100 µM. For the same molecule, the GI50 [34] was > 100 µM, the TGI [34] was > 100 µM and the GI50 [35] was > 100 µM. The TGI [35] was > 100 µM, the GI50 [36] was > 100 µM and the TGI [36] was > 100 µM. For the same molecule, the GI50 [37] was > 100 µM, the TGI [37] was > 100 µM and the GI50 [38] was > 100 µM. The TGI [38] was > 100 µM, the GI50 [39] was > 100 µM and the TGI [39] was > 100 µM. For the same molecule, the GI50 [40] was > 100 µM, the TGI [40] was > 100 µM and the GI50 [41] was > 100 µM. For the same molecule, the TGI [41] was > 100 µM, the GI50 [42] was > 100 µM and the TGI [42] was > 100 µM. The GI50 [43] was > 100 µM, the TGI [43] was > 100 µM and the GI50 [44] was > 100 µM. The TGI [44] was > 100 µM, the GI50 [45] was > 100 µM and the TGI [45] was > 100 µM. For the same molecule, the GI50 [46] was > 100 µM, the TGI [46] was > 100 µM and the GI50 [47] was > 100 µM. For the same molecule, the TGI [47] was > 100 µM, the GI50 [48] was > 100 µM and the TGI [48] was > 100 µM. The GI50 [49] was > 100 µM, the TGI [49] was > 100 µM and the GI50 [50] was > 100 µM. The TGI [50] was > 100 µM, the GI50 [51] was > 100 µM and the TGI [51] was > 100 µM. For the same molecule, the GI50 [52] was > 100 µM, the TGI [52] was > 100 µM and the GI50 [53] was > 100 µM. For the same molecule, the TGI [53] was > 100 µM, the GI50 [54] was > 100 µM and the TGI [54] was > 100 µM. For the same molecule, the GI50 [55] was > 100 µM, the TGI [55] was > 100 µM and the GI50 [56] was > 100 µM. The TGI [56] was > 100 µM.
